Data taken from the supplement of paper PMC10307832.

Experiments:
Assay in all cases: relative viability (nuclei count vs DMSO), 5 days (fraction); higher = more cells survive
[1] = compound: CC1=C(C=CC(=C1)[N+](=O)[O-])NS(=O)(=O)C2=C(C=CC(=C2)Cl)Cl [FH535] + NC(=O)Nc1cc(-c2cccc(F)c2)sc1C(=O)N[C@H]1CCCNC1 [AZD7762] (partner 0.2 µM)
Summary of the method: (§1)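 Lung cancer cell lines were seeded in 1536-well plates and dosed by pin tool the next day, with either a single drug or a fixed anchor-drug dose combined with five library-drug doses (not always all listed) spaced in √10 steps. Five days later, one step fixed the cells and stained their nuclei (final 0.05% Triton X-100, 1% formaldehyde, 1 ug/ml Hoechst), and nuclei were counted on 4× images. Relative viability is the nuclei count in treated wells divided by the count in vehicle wells, and each value is the median of duplicate plates.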

[2] = compound: CC1=C(C=CC(=C1)[N+](=O)[O-])NS(=O)(=O)C2=C(C=CC(=C2)Cl)Cl [FH535] + Nc1ncn([C@H]2C[C@H](O)[C@@H](CO)O2)c(=O)n1 [Decitabine] (partner 2 µM)
Summary of the method: as §1

[3] = compound: CC1=C(C=CC(=C1)[N+](=O)[O-])NS(=O)(=O)C2=C(C=CC(=C2)Cl)Cl [FH535] + C[C@]1(O)C[C@@H](c2nc(-c3ccc4ccc(-c5ccccc5)nc4c3)c3c(N)nccn32)C1 [Linsitinib] (partner 1 µM)
Summary of the method: as §1

[4] = compound: CC1=C(C=CC(=C1)[N+](=O)[O-])NS(=O)(=O)C2=C(C=CC(=C2)Cl)Cl [FH535] + N=C(N)NC(=N)NCCc1ccccc1 [Phenformin] (partner 250 µM)
Summary of the method: as §1

[5] = compound: CC1=C(C=CC(=C1)[N+](=O)[O-])NS(=O)(=O)C2=C(C=CC(=C2)Cl)Cl [FH535] + CC(C)C[C@H](NC(=O)[C@H](Cc1ccccc1)NC(=O)c1cnccn1)B(O)O [Bortezomib] (partner 0.002 µM)
Summary of the method: as §1

Row | Cell Line | relative viability ([1]; first compound 0.04 µM) | relative viability ([1]; first compound 0.1265 µM) | relative viability ([1]; first compound 0.4 µM) | relative viability ([1]; first compound 1.265 µM) | relative viability ([2]; first compound 0.04 µM) | relative viability ([2]; first compound 0.1265 µM) | relative viability ([2]; first compound 0.4 µM) | relative viability ([2]; first compound 1.265 µM) | relative viability ([3]; first compound 0.04 µM) | relative viability ([3]; first compound 0.1265 µM) | relative viability ([3]; first compound 0.4 µM) | relative viability ([3]; first compound 1.265 µM) | relative viability ([4]; first compound 0.04 µM) | relative viability ([4]; first compound 0.1265 µM) | relative viability ([4]; first compound 0.4 µM) | relative viability ([4]; first compound 1.265 µM) | relative viability ([5]; first compound 0.04 µM) | relative viability ([5]; first compound 0.1265 µM) | relative viability ([5]; first compound 0.4 µM) | relative viability ([5]; first compound 1.265 µM)
1 | HOP-62 | 0.473 | 0.66 | 0.416 | 0.55 | 0.232 | 0.196 | 0.23 | 0.227 | 1.01 | 1.09 | 1.07 | 0.713 | 0.682 | 0.668 | 0.552 | 0.401 | 0.579 | 0.949 | 0.768 | 0.682
2 | LC-2-ad | 0.809 | 0.828 | 0.744 | 0.697 | 0.773 | 0.892 | 0.764 | 0.713 | 0.846 | 0.829 | 0.771 | 0.502 | 0.482 | 0.58 | 0.425 | 0.368 | 0.802 | 0.987 | 0.892 | 0.722
3 | LCLC-97TM1 | 0.127 | 0.276 | 0.278 | 0.227 | 0.247 | 0.273 | 0.247 | 0.187 |  | 0.202 | 0.204 | 0.185 | 0.409 | 0.37 | 0.334 | 0.313 | 0.705 | 0.545 | 0.561 | 0.273
4 | LCLC-103H | 0.737 | 0.734 | 0.744 | 0.67 | 0.672 | 0.787 | 0.718 | 0.503 | 1.06 | 1.09 | 1.21 | 0.868 | 0.326 | 0.286 | 0.255 | 0.262 | 0.948 | 1.01 | 0.939 | 1.01
5 | LOU-NH91 | 0.767 | 0.779 | 0.608 | 0.428 | 0.759 | 0.823 | 0.788 | 0.64 | 0.861 | 1.02 | 0.932 | 0.506 | 0.554 | 0.471 | 0.424 | 0.392 | 0.504 | 0.497 | 0.527 | 0.37
6 | LU99A | 0.205 | 0.353 | 0.354 | 0.328 | 0.789 | 0.944 | 0.841 | 0.794 | 0.385 | 0.546 | 0.532 | 0.571 | 0.55 | 0.856 | 0.764 | 0.729 | 0.726 | 1.01 | 1.05 | 0.948
7 | LXF-289 | 1.05 | 1.1 | 1.03 | 0.873 | 0.357 | 0.422 | 0.369 | 0.336 | 0.949 | 0.938 | 0.897 | 0.697 | 0.474 | 0.486 | 0.472 | 0.384 | 0.96 | 0.996 | 0.928 | 0.723
8 | NCI-H23 | 0.22 | 0.391 | 0.275 | 0.307 | 0.299 | 0.31 | 0.347 | 0.318 |  | 0.633 | 0.628 | 0.567 | 0.786 | 0.739 | 0.655 | 0.555 |  | 1.25 | 1.04 | 1.11
9 | NCI-H322M | 0.522 | 0.549 | 0.515 | 0.633 | 0.677 | 0.711 | 0.694 | 0.682 | 0.982 | 1.07 | 1 | 0.847 | 0.813 | 0.844 | 0.707 | 0.601 | 1.21 | 1.14 | 1.07 | 1.08
10 | NCI-H441 | 1.09 | 1.32 | 1.09 | 1.02 | 0.221 | 0.263 | 0.265 | 0.252 | 0.573 | 0.447 | 0.521 | 0.615 | 0.316 | 0.829 | 0.709 | 0.512 | 0.356 | 0.351 | 0.376 | 0.293
11 | NCI-H460 | 0.616 | 0.615 | 0.603 | 0.337 | 0.442 | 0.608 | 0.493 | 0.347 | 0.902 | 0.891 | 0.791 | 0.678 | 0.517 | 0.535 | 0.399 | 0.244 | 0.984 | 1.24 | 1.16 | 0.668
12 | NCI-H596 | 1.04 | 1.18 | 0.933 | 1.05 | 0.983 | 1.06 | 1 | 0.976 | 1.1 | 1.13 | 1.1 | 1.01 | 0.794 | 0.623 | 0.614 | 0.69 | 0.915 | 1.09 | 1.19 | 0.952
13 | NCI-H647 | 0.557 | 0.519 | 0.322 | 0.418 | 0.311 | 0.362 | 0.364 | 0.334 | 1.09 | 1.11 | 1.17 | 0.912 | 0.524 | 0.508 | 0.431 | 0.42 | 0.964 | 0.584 | 0.818 | 0.95
14 | NCI-H650 | 0.877 | 1.03 | 1.18 | 0.67 | 0.315 | 0.359 | 0.333 | 0.32 | 0.687 | 1.09 | 0.832 | 0.603 | 0.411 | 0.417 | 0.388 | 0.289 | 0.704 | 0.854 | 0.794 | 0.506
15 | NCI-H727 | 0.409 | 0.59 | 0.595 | 0.59 | 0.845 | 0.945 | 0.851 | 0.877 | 0.367 | 0.192 | 0.293 | 0.216 | 0.56 | 0.509 | 0.363 | 0.305 | 0.687 | 0.59 | 0.75 | 0.721
16 | NCI-H838 | 0.893 | 1 | 0.902 | 0.891 | 0.39 | 0.498 | 0.387 | 0.345 | 0.987 | 1.03 | 0.938 | 0.908 | 0.512 | 0.722 | 0.445 | 0.309 | 0.701 | 0.713 | 0.694 | 0.575
